Results: ChEMBL document CHEMBL1142760, “Glycosidase inhibition by 1-glycosyl-4-phenyl triazoles” (Bioorg Med Chem Lett, 2005)

Experiments:
[1] = target: T1, Alpha-galactosidase (Escherichia coli K-12) (UniProt P06720); test: Percent inhibition against Escherichia coli galactosidase at 0.24 mM; n>=3
T1 sequence (whole entry): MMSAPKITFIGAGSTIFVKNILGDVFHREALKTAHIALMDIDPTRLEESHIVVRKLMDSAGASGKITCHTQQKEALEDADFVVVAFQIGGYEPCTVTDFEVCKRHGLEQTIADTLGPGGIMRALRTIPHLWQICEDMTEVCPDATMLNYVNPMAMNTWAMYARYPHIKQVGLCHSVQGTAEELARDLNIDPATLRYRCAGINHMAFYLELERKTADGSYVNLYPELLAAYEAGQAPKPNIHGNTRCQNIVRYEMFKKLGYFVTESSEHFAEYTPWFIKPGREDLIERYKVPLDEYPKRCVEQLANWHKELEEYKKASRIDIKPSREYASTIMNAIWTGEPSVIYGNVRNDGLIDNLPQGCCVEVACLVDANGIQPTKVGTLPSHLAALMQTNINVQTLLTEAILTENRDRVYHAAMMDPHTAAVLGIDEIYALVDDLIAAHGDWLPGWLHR

[2] = target: T1, Alpha-galactosidase (Escherichia coli K-12); test: Percent inhibition against Escherichia coli galactosidase at 0.24 mM; n>=2

Compound	inhibition [1] [%]	inhibition [2] [%]
OC[C@H]1NC[C@H](O)[C@@H](O)[C@@H]1O	< 20	–
OC[C@@H]1O[C@@H](n2cc(-c3ccccc3)nn2)[C@@H](O)[C@@H](O)[C@@H]1O	–	< 20
OC[C@@H]1O[C@@H](n2cc(-c3ccccc3)nn2)[C@@H](O)[C@@H](O)[C@H]1O	30	–
